Measurements as given in ChEMBL document CHEMBL1134002, “N-Aminoindoline derivatives as inhibitors of 5-lipoxygenase” (Bioorg Med Chem Lett, 2001).

Assays:
[1] = biological target: T1, Polyunsaturated fatty acid 5-lipoxygenase (Rattus norvegicus, UniProt P12527); test: In vitro inhibitory concentration against 5-lipoxygenase in RBL-1 cells; format: cell-based
T1 sequence (P12527 whole entry): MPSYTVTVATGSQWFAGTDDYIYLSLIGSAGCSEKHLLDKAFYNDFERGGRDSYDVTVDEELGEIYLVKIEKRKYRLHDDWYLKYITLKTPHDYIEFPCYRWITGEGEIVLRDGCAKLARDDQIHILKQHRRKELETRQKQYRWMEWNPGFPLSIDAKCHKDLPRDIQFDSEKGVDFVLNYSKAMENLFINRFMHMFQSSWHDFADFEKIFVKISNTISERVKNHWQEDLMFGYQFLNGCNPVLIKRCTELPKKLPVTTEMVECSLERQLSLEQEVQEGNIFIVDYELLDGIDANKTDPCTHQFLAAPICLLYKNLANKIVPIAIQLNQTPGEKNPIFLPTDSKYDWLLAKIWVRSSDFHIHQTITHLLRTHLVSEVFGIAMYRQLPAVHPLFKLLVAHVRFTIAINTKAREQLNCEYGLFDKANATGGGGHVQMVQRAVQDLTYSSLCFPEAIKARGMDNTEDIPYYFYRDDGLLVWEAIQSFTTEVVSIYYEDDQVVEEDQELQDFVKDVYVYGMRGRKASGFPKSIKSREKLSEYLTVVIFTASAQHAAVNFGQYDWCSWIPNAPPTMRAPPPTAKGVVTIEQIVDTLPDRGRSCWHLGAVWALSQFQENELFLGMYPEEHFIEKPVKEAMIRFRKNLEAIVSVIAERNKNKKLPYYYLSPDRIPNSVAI

[2] = biological target: T2, Polyunsaturated fatty acid 5-lipoxygenase (Rattus norvegicus) (UniProt P12527); test: In vitro percent inhibition against 5-lipoxygenase in RBL-1 cells at 10 uM concentration; format: cell-based
T2 sequence (whole entry): T1 sequence (P12527 whole entry)

[3] = biological target: T2, Polyunsaturated fatty acid 5-lipoxygenase (Rattus norvegicus); conditions: RBL-1; 10 uM
[4] = biological target: T2, Polyunsaturated fatty acid 5-lipoxygenase (Rattus norvegicus); test: In vitro percent inhibition against 5-lipoxygenase in RBL-1 cells at 1 uM concentration; format: cell-based

inhibition [2] [%] | SMILES | also measured
80 | O=C(NN1CCc2cc(O)ccc21)c1ccccc1 | IC50 [1]: 3.47 µM
53 | CN(NS(=O)(=O)c1ccccc1)c1ccccc1 | 
20 | COc1ccc2c(c1)CCN2NC(=O)c1ccccc1 | 
 | CC(Cc1ccc(O)c(O)c1)C(C)Cc1ccc(O)c(O)c1 (centres undefined) | inhibition [3]: 73%
28 | CN(NC(=O)c1ccccc1)c1ccccc1 | 
18 | O=C(O)CCC/C=C/c1ccc(C(=O)NN2CCc3ccccc32)cc1 | 
15 | O=C(NN1CCc2ccccc21)c1ccccc1 | 
 | CCCCCCCCCCNC(=O)CCC/C=C/c1ccc(C(=O)NN2CCc3ccccc32)cc1 | inhibition [4]: 57%
